Counter-ions that a name gives are not always drawn.
Experiments:
Format in all cases: in vivo, Sprague Dawley (SD) rats
[1] = tested on: rats with osteoarthritis induced by pMMx+ACLT; test: Weight bearing difference of hind legs (biped balance measurement) in pMMx+ACLT osteoarthritis rat model; conditions: for Weight bearing difference of hind legs: Duloxetine 5 mg/kg i.g. daily
Procedure: (§1) After acclimation of the animals, the animals were evaluated for normal pain threshold (on Day 1 of study) using the Von Frey, or Up-Down, method, and for biped balance degree of the knee joint on the surgical side (right hind limb) using a biped balance tester. The rats were then anesthetized with isoflurane, and the knee joints were depilated and disinfected. Osteoarthritis was induced in the animals by partial medial meniscectomy in combination with anterior cruciate ligament transection (pMMx+ACLT). Briefly, the skin and joint cavity close to the inner side of the right knee were cut, the knee joint was placed in the maximum flexion state, with the joint cavity exposed and the medial meniscus separated. The medial ⅓ meniscus and the anterior cruciate ligament were then cut-off. For the control animal group (no osteoarthritis induction), only the skin was cut to open the joint cavity without removing the ligament or meniscus. The date of the osteoarthritis model establishment was Day 8 of the study.
(§2) One week after model establishment (Day 15 of study), before administration of treatment, the basic pain threshold of plantar pain was evaluated on the operation side for each of the animals, and the osteoarthritis model rats were evenly divided according to the basic Von Frey reaction value (2-5), with 8 animals used for each of the osteoarthritis model group (vehicle-treatment), the positive control drug (duloxetine) 5 mg/kg group, and the ALMB-0166 15 mg/kg, 25 mg/kg, and 50 mg/kg dose groups. After grouping, drug treatment was started on Day 15 of study. For each of the ALMB-0166-treated test groups, the treatment was administered intravenously, once a week, with four total doses (on Day 15, 22, 29, and 36 of the study, corresponding to day 1, 8, 15 and 22 of treatment). For the positive control group, duloxetine was administered orally every day until the end of the experimental cycle.
(§3) Weight measurements were taken for animals in each test group on Days 15, 22, 29 and 36 of the study. On Days 16, 23, 30 and 37, the gait of each animal, the change of plantar pain threshold induced by knee joint lesions on the operative side, and the weight bearing of both lower limbs were measured for each animal was scored on according to the Coderre scoring method, the Up-Down method, and bipedal balance pain testing, respectively.
A bipedal balance pain tester was used to evaluate the weight bearing of both lower limbs for each animal. Each animal was placed in the plexiglass cover of the biped balance pain instrument. After the animal completed their exploratory behavior, the forelimbs of the rats laid on the incline of the device, and the hind limbs stood on the left and right balance plates respectively. […] The measurements were repeated three times for each animal, with an interval of 10 seconds between each replicate measurement.
(§4) The gait scoring, plantar pain threshold, and weight bearing differential were expressed as the mean and […] (Mean±SD). The data between model group and administration group at multiple time points were analyzed by repeated measures analysis of variance method with SPSS Statistics 21 software, and Tamhane's method for subsequent analysis. P<0.05 was considered to have a significant difference, and p<0.01 was considered to have a very significant difference. The final data were plotted with GraphPad Prism 6 software.

[2] = Weight of rats with osteoarthritis induced by pMMx+ACLT; conditions: Duloxetine 5 mg/kg i.g. daily
Procedure: Male Sprague Dawley (SD) rats (Specific Pathogen Free grade; Shanghai Slac Laboratory Animal Co. Ltd) were obtained in the study. Each rat was weight at the start of treatment, with the average weight ranging from 200-220 grams. Upon arrival at the test facility, the animals were housed at five rats per cage and acclimated for five to seven days prior to initiation of treatment.
as §1, §2, §3

[3] = tested on: rats with osteoarthritis induced by pMMx+ACLT; test: Mechanical pain threshold of plantar pain (Von Frey Up-Down method, 50% MWT) in pMMx+ACLT osteoarthritis rat model; conditions: for Percent Increase in 50% MWT (g) (as compared to Day 15 of study) / Pain threshold of plantar pain, 50% MWT: Duloxetine 5 mg/kg i.g. daily
Procedure: as §1, §2, §3
The Up-Down method was used to measure the plantar pain threshold. Following the Up-Down methos, each rat was placed in a transparent enclosure with a sieve-shaped metal plate at the bottom, and the animal was allowed to adapt to about 15 minutes until the autonomous exploration and grooming activities stop. Von Frey probes were then used to vertically stimulate the middle of the hind plantar of each rat to make the plantar slightly s-shaped for 5 second, and the paw withdrawal response was observed. A positive response was noted if the paw was sharply withdrawn or there was flinching upon removal. The interval between each measurement was about 10 sec. If no response was observed after probe stimulation, it was regarded as a negative reaction.
For scoring the mechanical pain, the rats were stimulated with a series of Von Frey probes of 0.4, 0.6, 1, 1.4, 2, 4, 6, 8, 10, and 15 g). Testing was start with a 2 g probe, and if a positive reaction occurred, it was recorded as an “X,” and testing was continued with a 1.4 g probe. […] Testing was continued accordingly, using the probes successively without circumvention. […] If a positive reaction was induced even by the 0.4 g probe, the 50% MWT was recorded as 0.4 g. […]

[4] = tested on: rats with osteoarthritis induced by pMMx+ACLT; test: Gait score (Coderre scoring method) in pMMx+ACLT osteoarthritis rat model; conditions: for Gait Score: Duloxetine 5 mg/kg i.g. daily
Procedure: as §1, §2, §3
Coderre gait method was used to measure the gait of each animal. The gait was measured according to the following scoring: standard (Grade 0: normal walking, 0 point); Level 1 (sight claudication, slight bending below knee joint, 2 points); Level 2 (claudication, the affected limb can touch the ground, 4 points); Level 3 (severe claudication, the affected limb leaves the ground and walk on three feet, 6 points).
as §4

[5] = Day 1 (before model establishment)
[6] = duloxetine 5 mg/kg, multivariate test, p<0.05

CNCC[C@H](Oc1cccc2ccccc12)c1cccs1 [Duloxetine, Duloxetine hydrochloride]
Weight bearing difference of hind legs [1, 5]: 2.96 ± 1.88 g | Weight bearing difference of hind legs ([1]; Day 15 (treatment start)): 104.28 ± 11.40 g | Weight bearing difference of hind legs ([1]; Day 16): 95.60 ± 2.27 g | Weight bearing difference of hind legs ([1]; Day 23): 80.91 ± 1.98 g | Weight bearing difference of hind legs ([1]; Day 30): 56.80 ± 4.06 g | Weight bearing difference of hind legs ([1]; Day 37): 51.12 ± 4.81 g | Decrease in hind limb weight bearing difference over time compared with osteoarthritis model (vehicle-treated) group [1, 6]: significant | Hind limb weight bearing difference at each time point ([1]; duloxetine test group, Days 16, 23, 30 and 37, p<0.01): significant decrease | Weight ([2]; Day 1 of study (before treatment)): 223.8 ± 7.8 g | Weight ([2]; Day 8 of study (model establishment, before treatment)): 280.1 ± 11.2 g | Weight ([2]; Day 15 of study (treatment start)): 317.8 ± 20.4 g | Weight ([2]; Day 22 of study): 353.9 ± 23.0 g | Weight ([2]; Day 29 of study): 389.9 ± 26.2 g | Weight ([2]; Day 36 of study): 423.0 ± 30.0 g | Percent Increase in 50% MWT (g) (as compared to Day 15 of study) ([3]; Day 1): 0.0% | Pain threshold of plantar pain, 50% MWT [3, 5]: 15.00 ± 0.00 g | Percent Increase in 50% MWT (g) (as compared to Day 15 of study) ([3]; Day 15): 0.7% | Pain threshold of plantar pain, 50% MWT ([3]; Day 15 (before administration of treatment)): 3.23 ± 0.64 g | Pain threshold of plantar pain, 50% MWT ([3]; Day 16): 5.27 ± 2.72 g | Percent Increase in 50% MWT (g) (as compared to Day 15 of study) ([3]; Day 16): 52.9% | Pain threshold of plantar pain, 50% MWT ([3]; Day 23): 7.11 ± 2.45 g | Percent Increase in 50% MWT (g) (as compared to Day 15 of study) ([3]; Day 23): 90.3% | Pain threshold of plantar pain, 50% MWT ([3]; Day 29): 8.47 ± 4.92 g | Percent Increase in 50% MWT (g) (as compared to Day 15 of study) ([3]; Day 30): 108.2% | Pain threshold of plantar pain, 50% MWT ([3]; Day 37): 9.84 ± 4.65 g | Percent Increase in 50% MWT (g) (as compared to Day 15 of study) ([3]; Day 37): 70.9% | Pain threshold of plantar pain over time compared with osteoarthritis model (vehicle-treated) group [3, 6]: significant increase | Pain threshold of plantar pain at each time point ([3]; duloxetine dosage group, Days 23, 30 and 37 of the study, p<0.05): significantly increased | Gait Score ([4]; Day 16 of study): 3.5 ± 0.9 | Gait Score ([4]; Day 23 of study): 3.0 ± 1.1 | Gait Score ([4]; Day 30 of study): 1.3 ± 1.0 | Gait Score ([4]; Day 37 of study): 0.0 ± 0.0 | Gait score compared to the vehicle-treated group ([4]; duloxetine 5 mg/kg, multivariate test, p>0.05): no significant different
